{"source": "ChEMBL document CHEMBL1955731", "about": "“Design and synthesis of novel bone-targeting dual-action pro-drugs for the treatment and reversal of osteoporosis” (Bioorg Med Chem, 2012)", "key": {"Plasma [1]": {"test_system": "Plasma", "test": "Prodrug conversion in rat plasma assessed as compound conversion to 7-((R)-2-((R,E)-4,4-difluoro-3-hydroxy-4-phenylbut-1-enyl)-5-oxopyrrolidin-1-yl)heptanoic acid at 100 ug/ml for 96 hrs by HPLC-MS-MS analysis", "type": "ADME, cell-free"}, "Bone [2]": {"test_system": "Bone", "test": "Binding affinity to rat bone at 0.1 mg/ml after 10 mins", "type": "ADME, tissue-based, Bone element"}, "Plasma [3]": {"test_system": "Plasma", "test": "Prodrug conversion in rat plasma assessed as compound conversion to 7-((R)-2-((R,E)-4,4-difluoro-3-hydroxy-4-phenylbut-1-enyl)-5-oxopyrrolidin-1-yl)heptanoic acid at 100 ug/ml after 30 mins by HPLC analysis", "type": "ADME, cell-free", "conditions": "0.5 h; call rule not given here"}, "Bone [4]": {"test_system": "Bone", "test": "Drug uptake in Sprague-Dawley rat bone at 5 mg/kg, iv after 28 days", "type": "ADME, organism-based, Bone element", "parameters": "dose 5 mg/kg, route intravenous", "conditions": "in vivo, 672 h"}, "Rattus norvegicus": {"test_system": "Rattus norvegicus", "test": "Toxicity in Sprague-Dawley rat at 5 mg/kg, iv", "type": "organism-based", "parameters": "dose 5 mg/kg, route intravenous", "conditions": "in vivo"}, "[5]": {"test": "Drug excretion in Sprague-Dawley rat feces at 5 mg/kg, iv after 24 hrs", "type": "ADME, organism-based", "parameters": "dose 5 mg/kg, route intravenous", "conditions": "in vivo"}, "Bone [6]": {"test_system": "Bone", "test": "Drug uptake in Sprague-Dawley rat bone at 5 mg/kg, iv after 7 days", "type": "ADME, organism-based, Bone element", "parameters": "dose 5 mg/kg, route intravenous", "conditions": "in vivo, 168 h"}, "Bone [7]": {"test_system": "Bone", "test": "Drug uptake in rat bone after 5 mins", "type": "ADME, tissue-based, Bone element", "conditions": "in vivo"}, "[8]": {"test": "Elimination half life in Sprague-Dawley rat at 5 mg/kg, iv", "type": "ADME, organism-based", "parameters": "dose 5 mg/kg, route intravenous", "conditions": "in vivo, read-out: beta t1/2"}, "Bone [9]": {"test_system": "Bone", "test": "Drug uptake in Sprague-Dawley rat bone at 5 mg/kg, iv after 14 days", "type": "ADME, organism-based, Bone element", "parameters": "dose 5 mg/kg, route intravenous", "conditions": "in vivo, 336 h"}, "[10]": {"test": "Drug excretion in Sprague-Dawley rat urine at 5 mg/kg, iv after 24 hrs", "type": "ADME, organism-based", "parameters": "dose 5 mg/kg, route intravenous", "conditions": "in vivo"}, "Bone [11]": {"test_system": "Bone", "test": "Drug uptake in Sprague-Dawley rat bone at 5 mg/kg, iv after 24 hrs", "type": "ADME, organism-based, Bone element", "parameters": "dose 5 mg/kg, route intravenous", "conditions": "in vivo"}, "Bone [12]": {"test_system": "Bone", "test": "Drug uptake in Sprague-Dawley rat bone at 10 mg/kg, iv after 14 days", "type": "ADME, organism-based, Bone element", "parameters": "dose 10 mg/kg, route intravenous", "conditions": "in vivo, 336 h"}, "Bone [13]": {"test_system": "Bone", "test": "Drug uptake in Sprague-Dawley rat bone at 10 mg/kg, iv after 2 days", "type": "ADME, organism-based, Bone element", "parameters": "dose 10 mg/kg, route intravenous", "conditions": "in vivo, 48 h"}, "Bone [14]": {"test_system": "Bone", "test": "Drug uptake in Sprague-Dawley rat bone at 10 mg/kg, iv after 6 hrs", "type": "ADME, organism-based, Bone element", "parameters": "dose 10 mg/kg, route intravenous", "conditions": "in vivo"}, "Bone [15]": {"test_system": "Bone", "test": "Drug uptake in Sprague-Dawley rat bone at 10 mg/kg, iv after 7 days", "type": "ADME, organism-based, Bone element", "parameters": "dose 10 mg/kg, route intravenous", "conditions": "in vivo, 168 h"}, "[16]": {"test": "Elimination half life in Sprague-Dawley rat at 10 mg/kg, iv", "type": "ADME, organism-based", "parameters": "dose 10 mg/kg, route intravenous", "conditions": "in vivo, read-out: beta t1/2"}}, "data": [{"smiles": "CCOC(=O)CCCCCCN1C(=O)CC[C@@H]1/C=C/[C@@H](OC(=O)NCCCC(O)(P(=O)(O)O)P(=O)(O)O)C(F)(F)c1ccccc1", "values": [{"measurement": "Drug metabolism", "setting": "Plasma [1]", "value": "Not Active"}]}, {"smiles": "O=C(O)CCCCCCN1C(=O)CC[C@@H]1/C=C/[C@@H](O)C(F)(F)c1ccccc1", "values": [{"measurement": "Activity", "setting": "Bone [2]", "value": "Not Active"}]}, {"smiles": "O=C1CC[C@H](/C=C/[C@@H](O)C(F)(F)c2ccccc2)N1CCCCCCc1nnn[nH]1", "values": [{"measurement": "Activity", "setting": "Bone [2]", "value": "Not Active"}]}, {"smiles": "CCOC(=O)CCCCCCN1C(=O)CC[C@@H]1/C=C/[C@@H](O)C(F)(F)c1ccccc1", "values": [{"measurement": "Drug metabolism", "setting": "Plasma [3]", "value": "Active"}, {"measurement": "Activity", "setting": "Bone [2]", "value": "Not Active"}]}, {"smiles": "[3H]C([3H])([3H])COC(=O)CCCCCCN1C(=O)CC[C@@H]1/C=C/[C@@H](OC(=O)NCCCC(O)(P(=O)(O)O)P(=O)(O)O)C(F)(F)c1ccccc1", "values": [{"measurement": "Drug uptake", "setting": "Bone [4]", "value": 5.6, "unit": "%"}, {"measurement": "Activity", "setting": "Rattus norvegicus", "value": "Non-toxic"}, {"measurement": "Drug excretion", "setting": "[5]", "value": "Active"}, {"measurement": "Drug uptake", "setting": "Bone [6]", "value": 8, "unit": "%"}, {"measurement": "Drug uptake", "setting": "Bone [7]", "value": 96, "unit": "%"}, {"measurement": "half-life", "setting": "[8]", "value": "< 15", "unit": "min"}, {"measurement": "Drug uptake", "setting": "Bone [9]", "value": 6.2, "unit": "%"}, {"measurement": "Drug excretion", "setting": "[10]", "value": "Not Active"}, {"measurement": "Drug uptake", "setting": "Bone [11]", "value": 9.4, "unit": "%"}, {"measurement": "Activity", "setting": "Bone [2]", "value": 90, "unit": "%"}]}, {"smiles": "CCN(CC)CC.[3H]C([3H])([3H])COC(=O)CCCCCCN1C(=O)CC[C@@H]1/C=C/[C@@H](OC(=O)Cc1ccc(OC(=O)NCCCC(O)(P(=O)(O)O)P(=O)(O)O)cc1)C(F)(F)c1ccccc1", "values": [{"measurement": "Drug uptake", "setting": "Bone [12]", "value": 1.4, "unit": "%"}, {"measurement": "Drug uptake", "setting": "Bone [13]", "value": 4.9, "unit": "%"}, {"measurement": "Drug uptake", "setting": "Bone [14]", "value": 5.9, "unit": "%"}, {"measurement": "Drug uptake", "setting": "Bone [15]", "value": 2.2, "unit": "%"}, {"measurement": "half-life", "setting": "[16]", "value": "< 30", "unit": "min"}]}]}
